The results in this text go back to ChEMBL document CHEMBL4680185, “Discovery of novel cyclin-dependent kinase (CDK) and histone deacetylase (HDAC) dual inhibitors with potent in vitro and in vivo anticancer activity” (Eur J Med Chem, 2020).

Test [1] concerns the target Histone deacetylase 2 (Homo sapiens, UniProt Q92769). Nature of the test: Inhibition of human recombinant HDAC2 preincubated for 10 mins followed by addition of substrate fluor De Lys green measured after 30 mins by fluorescent plate reader analysis.
The test system of test [2] is A-375. Nature of the test: cells. The conditions noted are these: Homo sapiens, A-375, 72 h. It counts as functional, cell-based.
Description: Antiproliferative activity against human A375 cells assessed as inhibition of cell growth incubated for 72 hrs by CCK-8 assay
Test [3] deals with NCI-H460. In words: Antimigratory activity against human H460 cells assessed as inhibition of cell migration at 0.5 uM measured after 48 hrs by cell scratch assay. It counts as functional, cell-based.
Test [4] has as its system HCT-116. In words: Induction of apoptosis in human HCT116 cells assessed as number of apoptotic cells at 2 uM incubated for 48 hrs by annexin V-FITC/PI based flow cytometric analysis relative to control. It counts as functional. (Flow cytometry measures light scatter and fluorescence of single cells or particles in a stream.)
The test system of test [5] is A-375. Nature of the test: Antimigratory activity against human A375 cells assessed as inhibition of cell migration at 0.25 uM measured after 48 hrs by cell scratch assay. It counts as functional, cell-based.
For test [6], the system named is NCI-H460. Nature of the test: cells. The conditions noted are these: Homo sapiens, NCI-H460, 72 h. It counts as functional, cell-based.
Description: Antiproliferative activity against human H460 cells assessed as inhibition of cell growth incubated for 72 hrs by CCK-8 assay
The subject of test [7] is HCT-116. In words: cells. It counts as functional. The conditions noted are these: Homo sapiens, time 72 hrs, read-out: GI.
Test [8] in a line: Cytotoxicity against mouse NIH/3T3 cells incubated for 72 hrs by CCK-8 assay. It counts as cell-based. The conditions noted are these: NIH3T3, 72 h.
Test [9] deals with HCT-116. Nature of the test: cells. It counts as functional. To be noted: Homo sapiens, time 72 hrs, read-out: GI. This is another data set of the same source.
Test [10] concerns A-375. Nature of the test: Induction of apoptosis in human A375 cells assessed as number of apoptotic cells at 2 uM incubated for 48 hrs by annexin V-FITC/PI based flow cytometric analysis relative to control. It counts as functional.
Test [11] concerns HCT-116. Nature of the test: cells. The conditions noted are these: Homo sapiens, HCT-116, 72 h. It counts as functional, cell-based.
Description: Antiproliferative activity against human HCT116 cells assessed as inhibition of cell growth incubated for 72 hrs by CCK-8 assay
The subject of test [12] is NCI-H460. In words: cells. The conditions noted are these: Homo sapiens, time 72 hrs, read-out: GI. It counts as functional.
Test [13] has as its system HeLa. In words: cells. It counts as functional, cell-based. To be noted: Homo sapiens, 72 h.
Description: Antiproliferative activity against human Hela cells assessed as inhibition of cell growth incubated for 72 hrs by CCK-8 assay
Test [14] deals with SMMC-7721. Nature of the test: cells. It counts as functional, cell-based. To be noted: Homo sapiens, SMMC-7721, 72 h.
Description: Antiproliferative activity against human SMMC7721 cells assessed as inhibition of cell growth incubated for 72 hrs by CCK-8 assay
Test [15] relates to NCI-H460. In words: cells. The conditions noted are these: Homo sapiens, time 72 hrs, read-out: GI. It counts as functional. The source holds these as a separate data set.
Test [16] deals with Cyclin-dependent kinase 4/cyclin D1 (Homo sapiens, UniProt P11802). Nature of the test: Inhibition of recombinant human full length CDK4/cyclin D1 expressed in Sf9 cells incubated for 10 mins by ADP-Glo reagent assay. (In ADP-Glo the light output rises with the ADP produced.)
Chain of Cyclin-dependent kinase 4/cyclin D1 (P11802 whole entry): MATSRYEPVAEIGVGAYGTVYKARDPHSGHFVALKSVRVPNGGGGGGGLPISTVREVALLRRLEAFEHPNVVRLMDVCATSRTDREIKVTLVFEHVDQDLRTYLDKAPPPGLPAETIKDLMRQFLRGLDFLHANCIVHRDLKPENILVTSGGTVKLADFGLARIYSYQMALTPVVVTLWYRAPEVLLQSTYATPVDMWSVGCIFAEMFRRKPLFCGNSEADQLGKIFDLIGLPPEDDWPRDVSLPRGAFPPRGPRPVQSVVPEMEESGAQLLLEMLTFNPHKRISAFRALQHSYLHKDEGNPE
Chain of Cyclin-dependent kinase 4/cyclin D1 (P24385 whole entry, further chain): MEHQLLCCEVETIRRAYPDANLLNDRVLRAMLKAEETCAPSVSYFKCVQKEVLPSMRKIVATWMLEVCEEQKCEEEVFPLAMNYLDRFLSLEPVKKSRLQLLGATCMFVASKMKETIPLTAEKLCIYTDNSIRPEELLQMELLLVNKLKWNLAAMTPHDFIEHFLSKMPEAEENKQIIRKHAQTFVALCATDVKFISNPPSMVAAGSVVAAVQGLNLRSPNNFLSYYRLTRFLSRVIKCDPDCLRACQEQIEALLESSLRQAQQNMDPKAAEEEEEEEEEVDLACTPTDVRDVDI
Test [17] has as its target CDK6/cyclin D3 (Homo sapiens, UniProt Q00534). In words: Inhibition of recombinant human full length CDK6/cyclin D3 incubated for 10 mins by ADP-Glo reagent assay. It counts as protein-complex assay.
Test [18] deals with Cyclin-dependent kinase 7/ cyclin H (Homo sapiens, UniProt P50613). In words: Inhibition of recombinant human full length CDK7/cyclin H1 expressed in Sf9 cells incubated for 10 mins by ADP-Glo reagent assay.
Chain of Cyclin-dependent kinase 7/ cyclin H (P51946 whole entry): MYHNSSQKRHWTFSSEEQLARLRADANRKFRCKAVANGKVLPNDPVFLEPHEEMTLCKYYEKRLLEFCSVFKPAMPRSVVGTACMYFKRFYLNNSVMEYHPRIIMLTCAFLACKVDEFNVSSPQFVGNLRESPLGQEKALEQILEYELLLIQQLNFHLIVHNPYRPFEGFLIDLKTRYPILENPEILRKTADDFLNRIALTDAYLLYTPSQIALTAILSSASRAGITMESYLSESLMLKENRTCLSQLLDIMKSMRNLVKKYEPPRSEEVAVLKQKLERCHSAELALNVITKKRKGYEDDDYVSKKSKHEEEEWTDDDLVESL
Chain of Cyclin-dependent kinase 7/ cyclin H (P50613 whole entry): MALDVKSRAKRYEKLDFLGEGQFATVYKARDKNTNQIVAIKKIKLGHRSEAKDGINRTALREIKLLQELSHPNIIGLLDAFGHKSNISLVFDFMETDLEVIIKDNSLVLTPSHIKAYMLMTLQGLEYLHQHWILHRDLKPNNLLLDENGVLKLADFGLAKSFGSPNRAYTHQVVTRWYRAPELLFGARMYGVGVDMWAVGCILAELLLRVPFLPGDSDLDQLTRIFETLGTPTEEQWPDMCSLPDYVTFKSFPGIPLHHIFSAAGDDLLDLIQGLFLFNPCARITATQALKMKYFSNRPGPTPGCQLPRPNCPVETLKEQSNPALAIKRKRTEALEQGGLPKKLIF

Calls of active or inactive are those of the source. The calls are words filed in the database; no cut-off is given here.

Chain of CDK6/cyclin D3 (P30281 whole entry): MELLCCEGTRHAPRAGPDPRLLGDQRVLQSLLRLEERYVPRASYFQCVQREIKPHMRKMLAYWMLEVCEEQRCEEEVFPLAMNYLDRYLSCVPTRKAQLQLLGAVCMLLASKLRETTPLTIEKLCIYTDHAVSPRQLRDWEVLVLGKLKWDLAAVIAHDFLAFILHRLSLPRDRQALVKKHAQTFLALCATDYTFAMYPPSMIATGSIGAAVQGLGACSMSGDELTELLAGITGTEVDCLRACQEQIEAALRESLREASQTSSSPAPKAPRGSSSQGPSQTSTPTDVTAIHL
Chain of CDK6/cyclin D3 (Q00534 whole entry): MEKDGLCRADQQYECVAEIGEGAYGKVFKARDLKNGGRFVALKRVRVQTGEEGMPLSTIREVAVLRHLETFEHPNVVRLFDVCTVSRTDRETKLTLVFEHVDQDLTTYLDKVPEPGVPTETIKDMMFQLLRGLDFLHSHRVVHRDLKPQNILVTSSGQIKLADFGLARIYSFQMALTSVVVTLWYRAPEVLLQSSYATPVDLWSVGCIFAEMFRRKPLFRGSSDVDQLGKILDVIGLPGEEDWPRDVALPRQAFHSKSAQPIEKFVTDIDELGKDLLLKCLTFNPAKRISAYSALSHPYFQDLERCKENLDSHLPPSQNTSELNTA
Chain of Histone deacetylase 2 (Q92769 whole entry): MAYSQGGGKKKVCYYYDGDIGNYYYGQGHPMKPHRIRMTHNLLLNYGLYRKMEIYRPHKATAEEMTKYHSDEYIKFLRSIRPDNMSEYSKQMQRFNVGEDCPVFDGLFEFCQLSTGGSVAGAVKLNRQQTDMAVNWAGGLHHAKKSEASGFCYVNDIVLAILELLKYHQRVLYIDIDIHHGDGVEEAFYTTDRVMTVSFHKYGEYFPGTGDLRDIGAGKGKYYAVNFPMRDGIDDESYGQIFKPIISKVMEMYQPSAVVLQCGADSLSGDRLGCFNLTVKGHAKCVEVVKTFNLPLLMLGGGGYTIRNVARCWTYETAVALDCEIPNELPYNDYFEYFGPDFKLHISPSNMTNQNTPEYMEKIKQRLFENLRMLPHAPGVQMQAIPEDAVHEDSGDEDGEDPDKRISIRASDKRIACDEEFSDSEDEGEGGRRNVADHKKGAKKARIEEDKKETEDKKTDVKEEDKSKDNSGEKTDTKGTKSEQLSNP

For `Nc1ccc(F)cc1NC(=O)c1ccc(CNC(=O)/C=C/c2cccnc2)cc1`, the IC50 in test [1] is 0.023 µM; in test [2] it was 4.11 µM; in test [6] it was greater than 32 µM; in test [8], 2.46 µM; in test [11], 2.77 µM; in [13] it was 14.9 µM. This compound came in with an IC50 in test [14] of 25.6 µM. The inhibition entry in test [3] and in [5] was “Active” throughout. Besides, the Activity in test [4] amounted to 44.3%; in test [10], 62.6%. The inhibition of growth at 2 µM is 64.4% in [7] and 1.73% in test [15]. The inhibition of growth at 8 µM amounted to 72.2% in test [9] and 38.2% in test [12].
With `O=C(Nc1ccc(F)cc1)c1n[nH]cc1NC(=O)c1c(F)cccc1F`, the IC50 in test [16] is greater than 1 µM; in test [2], 13.4 µM; in test [17] it was greater than 1 µM; in test [6], 9.46 µM; in test [8], 7.85 µM; in [11], 1.96 µM. Also, the values for the IC50 in test [13], in test [14] and in test [18] were 8.23 µM, 23.2 µM and greater than 1 µM, respectively. Besides, the inhibition result in test [3] and in test [5] was “Active” in each case. Besides, the Activity is reported as 48% in test [4] and 66.71% in test [10]. The inhibition of growth at 2 µM in [7] came out at 57.6%; in test [15], 21.3%. The inhibition of growth at 8 µM in test [9] stood at 74%; in [12], 59.1%.
Take `O=C(NO)c1ccc(CNC(=O)c2n[nH]cc2NC(=O)c2ccccc2Cl)cc1`: the IC50 amounted to 6.42 µM in [2]; 6.17 µM in [6]; 2.4 µM in test [11]; 16.2 µM in [13]; 21.8 µM in test [14]. In addition, the inhibition of growth at 2 µM in test [7] worked out at 53.8%; in test [15] it was 26.6%. Also, the figures for the inhibition of growth at 8 µM in test [9] and in test [12] were 71.6% and 29.8%, respectively.
Regarding `Nc1ccccc1NC(=O)c1ccc(CNC(=O)c2n[nH]cc2NC(=O)c2c(F)cccc2Cl)cc1`, the IC50 was 1.2 µM in [2]; 3.63 µM in test [6]; 0.7 µM in test [11]; 3.27 µM in test [13]; 16.3 µM in test [14]. Besides, the inhibition of growth at 2 µM in [7] was found to be 78.7%; in test [15] it was 50.1%. In addition, the values for the inhibition of growth at 8 µM in [9] and in [12] were 83.8% and 75%, respectively.
For `O=C(Cc1ccc(NC(=O)c2n[nH]cc2NC(=O)c2c(Cl)cccc2Cl)cc1)NO`, the IC50 in test [2] amounted to 4.61 µM; in test [6], 6.88 µM; in test [11], 2.4 µM; in [13], 7.15 µM; in test [14], 12.3 µM. In addition, the results for the inhibition of growth at 2 µM in [7] and in test [15] were 62.1% and 10.5%, respectively. Besides, the inhibition of growth at 8 µM in [9] is 75.8%; in test [12], 75.1%.

As usually defined, the IC50 is the midpoint of a concentration-inhibition curve.
